In assay [1] the test system is 3T3-L1 cells. Put plainly: Evaluation of Insulin Sensitivity Using 3T3-L1 Cells (triglyceride accumulation). The format is cell-based. Conditions: Mus musculus, 96 h, insulin 10 ng/ml, 4 days, triglyceride increase by 10 μM pioglitazone taken as 100%, read-out: EC50 (dose necessary for a 50% increase of triglyceride). The method, then: Evaluation of Insulin Sensitivity Using 3T3-L1 Cells 3T3-L1 cells (purchased from American Type Culture Collection) which were in the n=x+3 passage were purchased and subcultured until the passage number reached n=x+8. The cells were frozen in liquid nitrogen, thawed and suboultured till n=x+11. 0.05% Trypsin-0.53 mM ethylenediaminetetraacetic acid (EDTA) was added and the cells were harvested. The cells were suspended in Dulbecco's modified Eagle's medium (DMEM) [5% fetal bovine serum (FBS), supplemented with 5.6 mM glucose], plated on a 24 well plate at a concentration of 0.5×10^5 cells/well and cultured. Two days later, the medium was changed to DMEM [5% FBS, supplemented with 5.6 mM glucose] containing 1 μM dexamethasone and 0.5 mM isobutylmethylxanthine and the incubation was continued for 2 more days. The test compounds were dissolved in dimethyl sulfoxide and diluted 1000-fold with DMEM [2% FBS, supplemented with 5.6 mM glucose] containing insulin (10 ng/ml) to make the final concentration thereof to 0 nM-10 μM, and added to the cells, which cells were incubated for 4 days. After incubation, isopropanol was added by 200 μl per well and the cells were ruptured by a probe type ultrasonicator. The triglyceride amount was determined using a triglyceride determination kit. The activity of the compounds was determined by calculating relative triglyceride increase achieved by each compound when that achieved by 10 μM pioglitazone was taken as 100%, and expressed by the dose (EC50) necessary for a 50% increase of triglyceride. The test compounds were those of Examples 1-3, 5, 8, 15, 16, 18, 19, 22 and 28 and Reference Example 1. As a control compound, used was a known compound of the following formula. The above test concerns whether or not the insulin sensitivity of 3T3-L1 cells is promoted. […] When insulin acts on 3T3-L1 cells, it not only takes up glucose but permits accumulation of triglyceride in the cells. Thus, after allowing insulin to act, the cells are ruptured and triglyceride is quantitatively determined, whereby the degree of the action of insulin and the degree of sensitivity can be known.

Assay [2] has as its system diabetic mice (KK-Ay). Put plainly: Evaluation of Serum Glucose of Diabetic Mice. In kind it is in vivo. The following applies: Mus musculus, 96 h; KK-Ay male mice, oral in diet, 4 days; read-out: Serum glucose ED50 (dose corresponding to a -50% change). The method, then: Evaluation of Serum Glucose of Diabetic Mice
Genetically obese, hyperglycemic, hyperinsulinemic and hyperlipidemic diabetic mice (KK-Ay, male, Clea Japan, Inc., 8 weeks of age) were used for the pharmacological tests. Before the initiation of the drug administration, about 100 μl of blood was taken from orbital venosus under light ether anesthesia, and serum glucose was measured as described below. Based on the obtained value and body weight, the mice were grouped (6 per group) in such a manner that there existed no differences between the groups.
The test compounds were those of Examples 1 and 5 and Reference Example 1, as well as the above-mentioned control compound.
The test compounds were respectively dissolved in ethanol (three levels of concentrations per compound) and added to a powdered diet (CRF-1, ORIENTAL YEAST CO., LTD.). The diet was homogeneously mixed and ethanol was evaporated. The diet was given to the above-mentioned mice for 4 days, and the test compounds were orally administered (3 doses each). To a control group, CRF-1 powdered diet was given.
At day 4, blood samples (ca. 200 μl) were taken again in the same manner as above, and serum was separated (12,000 rpm, 5 min.) and used for the determination. Serum glucose was measured by hexokinase method (LYQUITECH glucose-HK-test; Boehlinger Marnheim Yamanouchi). Used for the determination was an automatic analyzer COBAS FARA II (Roche).
Changes in percentage of serum glucose of each group were calculated as follows from the values obtained at day 4 from the control group and the group administered with test compounds. [formula]
The changes in percentage of serum glucose was plotted on the axis of ordinates and the dose (mg/kg/day) of the test compound was plotted on the axis of abscissa (log), and the dose corresponding to a -50% change was read and taken as the ED50 of each test compound.

SMILES strings stand for the structures.

Results on 13 compounds are retold here after patent publication US6204277A, “Propionic acid derivatives and applications thereof” (Japan Tobacco Inc., priority 1996, dated 2001).

On to `CSC(=O)NC(=O)CCc1ccc(OCCc2nc(-c3ccccc3)oc2C)cc1` [Example 22], for which, in assay [1], the EC50 turned out to be 90 nM.

For the compound `COC(=O)C(Cc1ccc(OCCc2nc(-c3ccccc3)oc2C)cc1)C(=O)OC` [Reference Example 1, Dimethyl 2-[4-[2-(5-methyl-2-phenyl-4-oxazolyl)ethoxy]benzyl]malonate], the ED50 in assay [2] was 0.17 mg/kg. Also, the EC50 in assay [1] turned out to be 0.38 nM.

Take `COC(=O)C(Cc1ccc(OCCc2nc(-c3ccccc3)oc2C)cc1)C(N)=O` (centres unmarked) [Example 2, Methyl 2-carbamoyl-3-[4-[2-(5-methyl-2-phenyl-4-oxazolyl)ethoxy]phenyl]propionate]: in assay [1], the EC50 came to 90 nM.

For the compound `COC(=O)CCc1ccc(OCCc2nc(-c3ccccc3)oc2C)cc1` [Example 16, Methyl 3-[4-[2-(5-methyl-2-phenyl-4-oxazolyl)ethoxy]phenyl]propionate], in assay [1], the EC50 amounted to 53 nM.

Consider `CCc1ccc(CCOc2ccc(CC3SC(=O)NC3=O)cc2)nc1` (centres unmarked) [Control compound, reference compound], for which, in assay [2], the ED50 was 10.6 mg/kg. Also, the EC50 in assay [1] was determined as 180 nM.

With `Cc1oc(-c2ccccc2)nc1CCOc1ccc(CC(C(=O)O)C(=O)O)cc1` [Example 5, 2-[4-[2-(5-Methyl-2-phenyl-4-oxazolyl)ethoxy]benzyl]malonic acid], the ED50 in assay [2] was 2.7 mg/kg. Moreover, the EC50 in assay [1] came to 7.2 nM.

With `COC(=O)NC(=O)CCc1ccc(OCCc2nc(-c3ccccc3)oc2C)cc1` [Example 19, Methyl N-[3-[4-[2-(5-methyl-2-phenyl-4-oxazolyl)ethoxy]phenyl]propionyl]carbamide], in assay [1], the EC50 stood at 90 nM.

With `Cc1oc(-c2ccccc2)nc1CCOc1ccc(CC(C)(C(N)=O)C(=O)O)cc1` (centres unmarked) [Example 28, 2-Carbamoyl-2-methyl-3-[4-[2-(5-methyl-2-phenyl-4-oxazolyl)ethoxy]phenyl]propionic acid], the EC50 in assay [1] was found to be 73 nM.

Consider `Cc1oc(-c2ccccc2)nc1CCOc1ccc(CC(C(N)=O)C(=O)O)cc1` (centres unmarked) [Example 3, 2-Carbamoyl-3-[4-[2-(5-methyl-2-phenyl-4-oxazolyl)ethoxy]phenyl]propionic acid], for which the EC50 in assay [1] was 150 nM.

Turning to `COC(=O)C(Cc1ccc(OCCc2nc(-c3ccccc3)oc2C)cc1)C(=O)O` (centres unmarked) [Example 1, 2-Methoxycarbonyl-3-[4-[2-(5-methyl-2-phenyl-4-oxazolyl)ethoxy]phenyl]propionic acid], in assay [2], the ED50 came out at 0.12 mg/kg. The EC50 in assay [1] is 0.45 nM.

Turning to `Cc1oc(-c2cc3ccccc3s2)nc1CCOc1ccc(CCC(=O)NC(N)=O)cc1` [Example 15, N-[3-[4-[2-(2-(Benzothiophen-2-yl)-5-methyl-4-oxazolyl)ethoxy]phenyl]propionyl]urea], the EC50 in assay [1] came to 90 nM.

Consider `COC(=O)NC(=O)C(Cc1ccc(OCCc2nc(-c3ccccc3)oc2C)cc1)C(=O)OC` (centres unmarked) [Example 8, Methyl 2-methoxycarbonylcarbamoyl-3-[4-[2-(5-methyl-2-phenyl-4-oxazolyl)ethoxy]phenyl]propionate], for which, in assay [1], the EC50 amounted to 7 nM.

Consider `Cc1oc(-c2ccccc2)nc1CCOc1ccc(CCC(N)=O)cc1` [Example 18, 3-[4-[2-(5-Methyl-2-phenyl-4-oxazolyl)ethoxy]phenyl]propionamide], for which the EC50 in assay [1] stood at 65 nM.
